Where two headings read alike, the source gives them in different places.

Data set [1] deals with SK-MES-1 human non-small cell lung carcinoma. Put plainly: MTT cell growth inhibition, SK-MES-1. It counts as cell-based. The following applies: 5-10 days incubation. How it is done: (§1) Elsamitrucin and Elsamitrucin tosylate were tested in vitro using: B16F10 (murine […]), HCT 116 (human colon), HT29 (human colon) and SK-MES-1 (human non-small cell lung carcinoma ). Cell growth inhibition was evaluated in 96-well micro-culture plates with a semi-automated MTT (3-(4,5-dimethylthiazol-2-yl)-2,5-diphenyltetrazolium bromide) assay.
(§2) SK-MES-1 human non-small cell lung carcinoma, B16F10 murine melanoma cells, HCT 116 and HT29 human colon carcinomas (collectively “test cell cultures”) were maintained in buffered RPMI 1640 supplemented with fetal calf serum, antibiotics and other appropriate growth factors such as glutamine. Test cells (1,500-2,000 cells/well) were seeded in a 96-well micro culture plate with a total volume of 100 μL/well. After overnight incubation in a humidified incubator at 37° C. with 5% CO2 and 95% air, elsamitrucin solutions were diluted to various concentrations with RPMI 1640, were added to each well in a 100 μL volume. The elsamitrucin base and the elsamitrucin tosylate solutions (elsamitrucin solutions) were prepared and stored in a −20° C. freezer. The solutions were thawed not more than 10 times for the entire experiment.
(§3) Cell culture plates seeded with test cells and various concentrations of elsamitrucin solutions were placed in a humidified incubator at 37° C., with CO2 and 95% air for 5-10 days. […]

Data set [2] deals with B16F10 murine melanoma cells. The experiment in a line: MTT cell growth inhibition, B16F10. Type of data set: cell-based. To be noted: 5-10 days incubation. How it is done:
as §1, §2, §3

Data set [3] has as its system HCT 116 human colon carcinoma. Put plainly: MTT cell growth inhibition, HCT 116. It counts as cell-based. To be noted: 5-10 days incubation. As to the method:
as §1, §2, §3

Data set [4] has as its system HT29 human colon carcinoma. Put plainly: MTT cell growth inhibition, HT29. Type of data set: cell-based. To be noted: 5-10 days incubation. As to the method:
as §1, §2, §3

In data set [5] the test system is MCF7. To be noted: ER+ MCF7; cited from earlier work.
The test system of data set [6] is MDA-MB-231. To be noted: ER− MDA-MB-231; cited from earlier work.
Data set [7] concerns MCF7DX. The following applies: MCF7DX subline; cited from earlier work.
For data set [8], the system named is clinical breast cancer specimens from untreated patients. To be noted: cited from earlier work.
Data set [9] deals with patients with refractory/relapsed non-Hodgkin's lymphoma. The following applies: cited from earlier work.

Turning to “benzo(h)(1)benzopyrano(5,4,3-cde)(1)ebnzopyran-5,12-dione,10((2-O-(2-amino-2,6-dideoxy-3-O-methyl-alpha-D-galactopyranosyl)-6-deoxy-3-C-methyl-beta-D-galactopyranosyl)oxy)-6-hydroxy-1-methyl [Elsamitrucin]”, the IC50 in [1] came to 42 nM; in data set [2] it was 24 nM; in data set [3] it was 74 nM; in data set [4] it was 95 nM. Moreover, the results for the IC50 antiproliferative effect in data set [5] and in [6] were 0.25 micrograms/ml and 0.21 micrograms/ml, respectively. The “cross-resistance to doxorubicin (DX)” value in [7] is on record as “cross-resistant to DX”. In addition, the minimal inhibiting concentration is 0.1 micrograms/ml in [8] (ER+ tumors) and 3.5 micrograms/ml in data set [8] (ER− tumors). The elsamitrucin-associated toxicity entry in [9] is on record as “relatively mild”. Further, the myelosuppression result in data set [9] is “did not include myelosuppression”.

These data come from patent US20070293445A1, “Stable Elsamitrucin Salts Suitable for Pharmaceutical Formulations” (SPECTRUM PHARMACEUTICALS, INC., priority 2006, published 2007).
